Assay results reported in patent US12061143B2, “Methods for rapid determinations of antibiotic susceptibility phenotypes” (priority 2018, dated 2024).

How the values were obtained:
Type in all cases: cell-based
A. nosocomialis M2 = assay: MIC by broth microdilution AST
Description: (§1) Varied counts of bacteria were mixed with human blood and diluted 1:9 (v/v) with bacterial growth medium to desired bacterial concentrations (<10 CFU/mL final solution) and plated to independently confirm CFU/mL blood. Saponin was immediately added and the samples shaken for 15 minutes to achieve selective blood cell lysis. After hemolysis, bacteria were spun down and washed with PBS. The pellets were resuspended in bacterial growth medium and incubated at 37° C. for 2 hours, followed by another 3-hour incubation with antibiotics at various fractions of the minimum inhibition concentration (MIC, as independently determined by microdilution from the pure starting culture, Table 1) for sensitive strains or at the CLSI MIC resistant breakpoints^(12) for the highly resistant strains. Changes in scattered light signals largely resulting from bacterial growth inhibition were monitored by flow cytometry, and the difference in the 2-D scatter histograms with and without antibiotic treatment was quantified with PB-sQF statistics.^(1) Using PB-sQF, distance was calculated for each antibiotic concentration relative to its own no-antibiotic control and expressed as “fold distance” relative to the 99% confidence limit distance between the no-antibiotic control and the sensitive breakpoint. This allowed comparison of fold distances among all samples as each is individually paired to its own control, as is each replicate.
(§2) All clinical isolates (E. coli strains Mu14S and Mu890, K. pneumoniae strains Mu670 and Mu55, A. nosocomialis strains M2) were obtained from the Georgia Emerging Infection Program (GEIP). The MIC of each isolate was determined by a clinical microbiology laboratory using post blood culture automated AST and confirmed using broth microdilution in our laboratory. The MICs of each strain were measured to be as follows. For A. nosocomialis strain M2, 1 μg/mL tetracycline, 2 μg/mL gentamicin, and >1024 μg/mL ampicillin. For E. coli strain Mu890, 1 μg/mL tetracycline, 8 μg/mL gentamicin, and >1024 μg/mL ampicillin. For E. coli strain Mu14S, >64 μg/mL tetracycline, 8 μg/mL gentamicin, and >1024 μg/mL ampicillin. For K. pneumoniae strain Mu55, >64 μg/mL tetracycline, 1 μg/mL gentamicin, and >1024 μg/mL ampicillin. For K. pneumoniae strain Mu670, 2 μg/mL tetracycline, 4 μg/mL gentamicin, and >1024 μg/mL ampicillin.

E. coli Mu14S = assay: MIC by broth microdilution AST
Description: as §1, §2

E. coli Mu890 = assay: MIC by broth microdilution AST; settings: E. coli Mu890
Description: as §1, §2

K. pneumoniae Mu55 = assay: MIC by broth microdilution AST
Description: as §1, §2

K. pneumoniae Mu670 = assay: MIC by broth microdilution AST
Description: as §1, §2

E. coli strain Mu14S = assay: FAST flow cytometry AST with PB-sQF, bacteria recovered from 10% human blood
Description: as §1
(§3) To simulate a blood specimen from a patient with bacteremia, the isolates were grown, diluted to the desired CFU/mL in blood (ZenBio, Research Triangle Park, NC) and saponin was added to achieve the final diluted sample. Initial bacterial cultures were prepared using Luria-Bertani (LB) broth for (E. coli) or cation-adjusted Mueller-Hinton broth (CAMHB). The fresh bacterial cultures started from ˜0.05 optical density (OD) by inoculating a 6-mL fresh growth medium with overnight culture were grown in an incubator shaker (MaxQ 4000, Thermal Fisher Scientific, Waltham, MA) at 37° C. and 225 rpm. After the culture reached mid-log phase, bacteria were collected and diluted into ˜10 CFU/mL through serial 10-fold dilutions. Bacterial densities were determined by plating onto LB plates. The final 10-fold dilution was performed by adding 500 μL of 100 CFU/mL into 4500 μL of 10% human blood in medium.
(§4) A 2.5% (w/v) of saponin solution was prepared, sonicated (Branson 2510, Emerson, St. Louis, MO) for 20 minutes and spun down with a clinical centrifuge (Centrific Model 228, Fisher Scientific, Waltham, MA) for 4 minutes. The supernatant cleared of particulates was collected. 500 μL of 2.5% saponin was then added to the 5 mL of 10% human blood sample with ˜10 CFU/mL, described above and the mixtures were shaken at 300 rpm for 15 minutes at 37° C. After the saponin treatment, the bacteria were pelleted and washed with 2 mL of phosphate buffered saline (PBS) (Life Technologies, Carlsbad, CA) using a clinical centrifuge for 2 minutes. Bacterial growth medium (2.5 mL) was then added to the tube and incubated for 2 hours at 37° C. and 225 rpm.
(§5) After the 2-hour incubation, 500-μL aliquots of the suspension were added to each of 4 wells in a 12-well microtiter plate that contained 500 μL of growth medium with or without antibiotic at 2-fold of specified concentrations. The plate was then incubated at 37° C. for 3 hours. Bacteria were collected by centrifugation (Centrifuge 5417R, Eppendorf) and resuspended in 200 μL of PBS for flow cytometry detection. To ensure each clinical isolate was tested at its MIC values of the tested antibiotics, the initial bacterial cultures at the 1000 CFU/mL dilution were also tested for each experiment (FIGS. 4A-4F, 5A-5F, 7A-7F, 8A-8F, and 9A-9F), confirming that the antibiotic concentrations indeed inhibited bacterial growth.
(§6) Cytometric data were collected by BD LSRFortessa flow cytometer (Becton Dickinson, Franklin Lake, NY) equipped with a 100 mW, 488 nm laser for the scatter signal. […]

E. coli strain Mu890 = assay: as above
Description: as §1, §3, §4, §5, §6

[1] = test system: K. pneumoniae strain Mu55; assay: as above; settings: ~8 CFU/mL after 10-fold dilution
Description: as §1, §3, §4, §5, §6

[2] = test system: K. pneumoniae strain Mu670; assay: as above; settings: ~9 CFU/mL after 10-fold dilution
Description: as §1, §3, §4, §5, §6

[3] = class according to 2016 CLSI handbook
[4] = microdilution from pure culture

Gentamicin
MIC (S/I/R) (A. nosocomialis M2; [3]): (S) | MIC (A. nosocomialis M2; [4]): 2 µg/mL | MIC (S/I/R) (E. coli Mu14S; [3]): (I) | MIC (E. coli Mu14S; [4]): 8 µg/mL | MIC (S/I/R) (E. coli Mu890; [3]): (I) | MIC (E. coli Mu890; [4]): 8 µg/mL | MIC (S/I/R) (K. pneumoniae Mu55; [3]): (S) | MIC (K. pneumoniae Mu55; [4]): 1 µg/mL | MIC (S/I/R) (K. pneumoniae Mu670; [3]): (S) | MIC (K. pneumoniae Mu670; [4]): 4 µg/mL | FAST antibiotic-induced scatter signal change (E. coli strain Mu14S; Mu14S treated at the MIC): exhibits growth inhibition | PB-sQF fold distance average versus the paired-control (E. coli strain Mu14S; Mu14S, 1×MIC, triplicate data): clear differences | PB-sQF fold distance-based FAST result (E. coli strain Mu890; Mu890, beyond the 99% confidence level): effective | FAST antibiotic-induced scatter signal change (E. coli strain Mu890; Mu890 treated at the MIC, 3-hr incubation, vs paired no-antibiotic control): effective growth inhibition | PB-sQF FAST result [1]: appropriate | PB-sQF FAST result [2]: appropriate
